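Values below derive from 48-hour exposures of cells grown in 96-well plates, with endpoints linearly interpolated between the two concentrations bracketing the appropriate inhibition level. TGI is the concentration that stops growth completely.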
How the values were obtained:
Test in all cases: NCI tumour cell line growth inhibition, 48 h
[1] = system: OVCAR-5 ovarian
[2] = system: SF-539 CNS
[3] = system: RXF 393 renal
[4] = system: CAKI-1 renal
[5] = system: HCT-116 colon
[6] = system: SNB-75 CNS
[7] = system: OVCAR-8 ovarian
[8] = system: NCI-H226 lung
[9] = system: NCI-H522 lung
[10] = system: LOX IMVI melanoma
[11] = system: SF-295 CNS
[12] = system: SK-OV-3 ovarian
[13] = system: HT29 colon
[14] = system: MALME-3M melanoma
[15] = system: DLD-1 colon
[16] = system: HCC-2998 colon
[17] = system: EKVX NSCLC
[18] = system: NCI-H23 lung
[19] = system: SW-620 colon
[20] = system: K-562 leukemia
[21] = system: KM20L2 colon
[22] = system: A498 renal
[23] = system: COLO 205 colon
[24] = system: TK-10 renal
[25] = system: DMS 114 small cell lung
[26] = system: HOP-92 NSCLC
[27] = system: ACHN renal
[28] = system: SN12C renal
[29] = system: SNB-78 CNS
[30] = system: IGROV1 ovarian
[31] = system: SK-MEL-28 melanoma
[32] = system: M19-MEL melanoma
[33] = system: SK-MEL-5 melanoma
[34] = system: XF 498 CNS
[35] = system: LXFL 529 NSCLC
[36] = system: SNB-19 CNS
[37] = system: KM12 colon
[38] = system: UO-31 renal
[39] = system: M14 melanoma
[40] = system: MOLT-4 leukemia
[41] = system: U251 CNS
[42] = system: DMS 273 small cell lung
[43] = system: NCI-H460 lung
[44] = system: OVCAR-4 ovarian
[45] = system: 786-0 renal
[46] = system: UACC-62 melanoma
[47] = system: HOP-18 NSCLC
[48] = system: HCT-15 colon
[49] = system: RPMI-8226 leukemia
[50] = system: HL-60(TB) leukemia
[51] = system: UACC-257 melanoma
[52] = system: HOP-62 NSCLC
[53] = system: CCRF-CEM leukemia
[54] = system: A549 NSCLC
[55] = system: SK-MEL-2 melanoma
[56] = system: SF-268 CNS
[57] = system: OVCAR-3 ovarian
[58] = system: RXF-631 renal
[59] = system: SR leukemia
[60] = system: PC-3 prostate
[61] = system: P388/ADR leukemia
[62] = system: P388 leukemia

CC(C)(C)C1CCC2(CC1)c1[nH]c3ccccc3c1C1(CCC(C(C)(C)C)CC1)c1[nH]c3ccccc3c12 (configuration not stated)
TGI [1]: > 100 µM | TGI [2]: > 100 µM | TGI [3]: > 100 µM | TGI [4]: > 100 µM | TGI [5]: > 100 µM | TGI [6]: > 100 µM | TGI [7]: > 100 µM | TGI [8]: > 100 µM | TGI [9]: > 100 µM | TGI [10]: > 100 µM | TGI [11]: > 100 µM | TGI [12]: > 100 µM | TGI [13]: > 100 µM | TGI [14]: > 100 µM | TGI [15]: > 100 µM | TGI [16]: > 100 µM | TGI [17]: > 100 µM | TGI [18]: > 100 µM | TGI [19]: > 100 µM | TGI [20]: > 100 µM | TGI [21]: > 100 µM | TGI [22]: > 100 µM | TGI [23]: > 100 µM | TGI [24]: > 100 µM | TGI [25]: 57.3 µM | TGI [26]: > 100 µM | TGI [27]: > 100 µM | TGI [28]: > 100 µM | TGI [29]: > 100 µM | TGI [30]: > 100 µM | TGI [31]: > 100 µM | TGI [32]: > 100 µM | TGI [33]: > 100 µM | TGI [34]: > 100 µM | TGI [35]: > 100 µM | TGI [36]: > 100 µM | TGI [37]: > 100 µM | TGI [38]: > 100 µM | TGI [39]: > 100 µM | TGI [40]: > 100 µM | TGI [41]: > 100 µM | TGI [42]: > 100 µM | TGI [43]: > 100 µM | TGI [44]: > 100 µM | TGI [45]: > 100 µM | TGI [46]: > 100 µM | TGI [47]: > 100 µM | TGI [48]: > 100 µM | TGI [49]: > 100 µM | TGI [50]: > 100 µM | TGI [51]: > 100 µM | TGI [52]: > 100 µM | TGI [53]: > 100 µM | TGI [54]: > 100 µM | TGI [55]: > 100 µM | TGI [56]: > 100 µM

O=C1CCC(=O)N2CCCCN12
TGI [1]: > 100 µM | TGI [2]: > 100 µM | TGI [3]: > 100 µM | TGI [4]: > 100 µM | TGI [5]: > 100 µM | TGI [6]: > 100 µM | TGI [7]: > 100 µM | TGI [8]: > 100 µM | TGI [9]: > 100 µM | TGI [10]: > 100 µM | TGI [11]: > 100 µM | TGI [12]: > 100 µM | TGI [13]: > 100 µM | TGI [14]: > 100 µM | TGI [15]: > 100 µM | TGI [16]: > 100 µM | TGI [17]: > 100 µM | TGI [18]: > 100 µM | TGI [19]: > 100 µM | TGI [20]: > 100 µM | TGI [21]: > 100 µM | TGI [22]: > 100 µM | TGI [23]: > 100 µM | TGI [24]: > 100 µM | TGI [25]: > 100 µM | TGI [26]: > 100 µM | TGI [27]: > 100 µM | TGI [28]: > 100 µM | TGI [29]: > 100 µM | TGI [30]: > 100 µM | TGI [31]: > 100 µM | TGI [32]: > 100 µM | TGI [33]: > 100 µM | TGI [35]: > 100 µM | TGI [36]: > 100 µM | TGI [37]: > 100 µM | TGI [38]: > 100 µM | TGI [39]: > 100 µM | TGI [40]: > 100 µM | TGI [41]: > 100 µM | TGI [42]: > 100 µM | TGI [43]: > 100 µM | TGI [44]: > 100 µM | TGI [45]: > 100 µM | TGI [46]: > 100 µM | TGI [47]: > 100 µM | TGI [48]: > 100 µM | TGI [50]: > 100 µM | TGI [57]: > 100 µM | TGI [51]: > 100 µM | TGI [52]: > 100 µM | TGI [53]: > 100 µM | TGI [54]: > 100 µM | TGI [55]: > 100 µM | TGI [58]: > 100 µM | TGI [56]: > 100 µM

O=C1C2c3[nH]c4ccccc4c3C3CCCCCCC3C2C(=O)N1c1ccccc1 (configuration not stated)
TGI [2]: 30.5 µM | TGI [3]: 23.8 µM | TGI [6]: 5.33 µM | TGI [7]: 14.7 µM | TGI [10]: 17.2 µM | TGI [11]: 12.8 µM | TGI [12]: 6.37 µM | TGI [13]: > 100 µM | TGI [14]: 12.7 µM | TGI [16]: > 100 µM | TGI [17]: > 100 µM | TGI [18]: 70.2 µM | TGI [19]: 29.8 µM | TGI [20]: 24.9 µM | TGI [22]: 39.9 µM | TGI [23]: 28.6 µM | TGI [24]: 27 µM | TGI [25]: 17.5 µM | TGI [27]: 38.4 µM | TGI [59]: 48.4 µM | TGI [28]: 22.2 µM | TGI [29]: 32.4 µM | TGI [31]: 43.7 µM | TGI [32]: 37.2 µM | TGI [33]: > 100 µM | TGI [34]: 10.7 µM | TGI [35]: 33.8 µM | TGI [37]: > 100 µM | TGI [39]: 42.5 µM | TGI [41]: 14.9 µM | TGI [42]: 29.8 µM | TGI [43]: 18.6 µM | TGI [44]: 15.4 µM | TGI [45]: 26.5 µM | TGI [46]: > 100 µM | TGI [48]: > 100 µM | TGI [49]: 68.3 µM | TGI [57]: 17.2 µM | TGI [53]: 25.6 µM | TGI [54]: 24.9 µM | TGI [58]: 17.6 µM | TGI [56]: > 100 µM

CCCCCCCCCCNC1CC(OC2CC(O)(C(O)CO)Cc3c(O)c4c(c(O)c32)C(=O)c2c(OC)cccc2C4=O)OC(C)C1O (configuration not stated)
TGI [1]: 3.29 µM | TGI [2]: 3.41 µM | TGI [3]: 2.75 µM | TGI [5]: 0.65 µM | TGI [6]: 2.74 µM | TGI [9]: 3.73 µM | TGI [15]: 2.28 µM | TGI [16]: 2.74 µM | TGI [60]: 2.85 µM | TGI [18]: 12.6 µM | TGI [20]: 0.963 µM | TGI [22]: 2.62 µM | TGI [61]: 3.34 µM | TGI [24]: 56.5 µM | TGI [28]: 3.4 µM | TGI [33]: 3.06 µM | TGI [34]: 3.34 µM | TGI [40]: 0.9 µM | TGI [62]: 0.362 µM | TGI [48]: 4 µM | TGI [49]: 3.73 µM | TGI [51]: 3.05 µM | TGI [53]: 4.91 µM

— PubChem BioAssay (NCI)
